Test results: PubChem BioAssay AID2060903 (Molecular Pharmacology Branch, DTP, NCI, 2025)

System: 377384-186-R-J1-PDC complex spheroid viability
Experiment: Anticancer human tumor 377384-186-R-J1-PDC patient-derived pancreatic carcinoma cell line growth inhibition [RAS]
Conditions: for IC50: curve of first compound; for viability, T/C: stronger effect = lower value
Summary of the method: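 Multi-cell-type spheroids: tumor cells plus HUVEC endothelial cells and mesenchymal stem cells. RAS-pathway inhibitors were combined with targeted agents, each dosed in half-log steps down from clinical Cmax, or from 10 microM when Cmax was unknown.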

[1] = second compound 0.00316 µM, first compound 0.00316 µM
[2] = second compound 0.00316 µM, first compound 0.01 µM
[3] = second compound 0.00316 µM, first compound 0.0316 µM
[4] = second compound 0.00316 µM, first compound 0.1 µM
[5] = second compound 0.00316 µM, first compound 0.316 µM
[6] = second compound 0.00316 µM, first compound 1 µM
[7] = second compound 0.01 µM, first compound 0.00316 µM
[8] = second compound 0.01 µM, first compound 0.01 µM
[9] = second compound 0.01 µM, first compound 0.0316 µM
[10] = second compound 0.01 µM, first compound 0.1 µM
[11] = second compound 0.01 µM, first compound 0.316 µM
[12] = second compound 0.01 µM, first compound 1 µM
[13] = second compound 0.0316 µM, first compound 0.00316 µM
[14] = second compound 0.0316 µM, first compound 0.01 µM
[15] = second compound 0.0316 µM, first compound 0.0316 µM
[16] = second compound 0.0316 µM, first compound 0.1 µM
[17] = second compound 0.0316 µM, first compound 0.316 µM
[18] = second compound 0.0316 µM, first compound 1 µM
[19] = second compound 0.1 µM, first compound 0.00316 µM
[20] = second compound 0.1 µM, first compound 0.01 µM
[21] = second compound 0.1 µM, first compound 0.0316 µM
[22] = second compound 0.1 µM, first compound 0.1 µM
[23] = second compound 0.1 µM, first compound 0.316 µM
[24] = second compound 0.1 µM, first compound 1 µM
[25] = second compound 0.316 µM, first compound 0.00316 µM
[26] = second compound 0.316 µM, first compound 0.01 µM
[27] = second compound 0.316 µM, first compound 0.0316 µM
[28] = second compound 0.316 µM, first compound 0.1 µM
[29] = second compound 0.316 µM, first compound 0.316 µM
[30] = second compound 0.316 µM, first compound 1 µM
[31] = second compound 1 µM, first compound 0.00316 µM
[32] = second compound 1 µM, first compound 0.01 µM
[33] = second compound 1 µM, first compound 0.0316 µM
[34] = second compound 1 µM, first compound 0.1 µM
[35] = second compound 1 µM, first compound 0.316 µM
[36] = second compound 1 µM, first compound 1 µM
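Further: spheroids exposed to compounds for seven days before readout.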

Compound: C=CC(=O)Nc1cc(Nc2nccc(-c3cn(C)c4ccccc34)n2)c(OC)cc1N(C)CCN(C)C + C=CC(=O)N1CCN(c2nc(OCC3CCCN3C)nc3c(F)c(-c4nc(N)cc(C)c4C(F)(F)F)c(Cl)cc23)C(C)C1
- IC50 (second compound 0.00316 µM): 659 nM
- IC50 (second compound 0.01 µM): 602 nM
- IC50 (second compound 0.0316 µM): 851 nM
- IC50 (second compound 0.1 µM): 821 nM
- IC50 (second compound 0.316 µM): 905 nM
- IC50 (second compound 1 µM): 800 nM
- viability, T/C [1]: 99.4%
- viability, T/C [2]: 90.1%
- viability, T/C [3]: 98.1%
- viability, T/C [4]: 81.3%
- viability, T/C [5]: 61%
- viability, T/C [6]: 43.9%
- viability, T/C [7]: 87.6%
- viability, T/C [8]: 86.8%
- viability, T/C [9]: 87.8%
- viability, T/C [10]: 81.2%
- viability, T/C [11]: 59.9%
- viability, T/C [12]: 42.2%
- viability, T/C [13]: 96.7%
- viability, T/C [14]: 81.5%
- viability, T/C [15]: 90.7%
- viability, T/C [16]: 79.1%
- viability, T/C [17]: 64.6%
- viability, T/C [18]: 47.5%
- viability, T/C [19]: 96.4%
- viability, T/C [20]: 88.8%
- viability, T/C [21]: 102%
- viability, T/C [22]: 77.3%
- viability, T/C [23]: 70%
- viability, T/C [24]: 46%
- viability, T/C [25]: 92.1%
- viability, T/C [26]: 98.3%
- viability, T/C [27]: 83.8%
- viability, T/C [28]: 77.9%
- viability, T/C [29]: 64.8%
- viability, T/C [30]: 48.4%
- viability, T/C [31]: 93.2%
- viability, T/C [32]: 84.1%
- viability, T/C [33]: 85.2%
- viability, T/C [34]: 83.9%
- viability, T/C [35]: 65.6%
- viability, T/C [36]: 46.2%

Compound: CC(Nc1ccc2c(c1)OCCn1cc(N3C(=O)OCC3C(F)F)nc1-2)C(N)=O (stereo unspecified) + C=CC(=O)N1CCN(c2nc(OCC3CCCN3C)nc3c(F)c(-c4nc(N)cc(C)c4C(F)(F)F)c(Cl)cc23)C(C)C1
- IC50 (second compound 0.00316 µM): 739 nM
- IC50 (second compound 0.01 µM): 575 nM
- IC50 (second compound 0.0316 µM): 443 nM
- IC50 (second compound 0.1 µM): 775 nM
- IC50 (second compound 0.316 µM): 255 nM
- IC50 (second compound 1 µM): 647 nM
- viability, T/C [3]: 73.4%
- viability, T/C [4]: 72.2%
- viability, T/C [5]: 52.8%
- viability, T/C [6]: 48.1%
- viability, T/C (second compound 0.00316 µM, first compound 3.16 µM): 38.4%
- viability, T/C (second compound 0.00316 µM, first compound 10 µM): 28.4%
- viability, T/C [9]: 76.8%
- viability, T/C [10]: 63.5%
- viability, T/C [11]: 54.8%
- viability, T/C [12]: 46.6%
- viability, T/C (second compound 0.01 µM, first compound 3.16 µM): 37.9%
- viability, T/C (second compound 0.01 µM, first compound 10 µM): 32.8%
- viability, T/C [15]: 86.2%
- viability, T/C [16]: 68.2%
- viability, T/C [17]: 55.7%
- viability, T/C [18]: 40.3%
- viability, T/C (second compound 0.0316 µM, first compound 3.16 µM): 34.2%
- viability, T/C (second compound 0.0316 µM, first compound 10 µM): 32.1%
- viability, T/C [21]: 78.9%
- viability, T/C [22]: 73.3%
- viability, T/C [23]: 60.5%
- viability, T/C [24]: 45%
- viability, T/C (second compound 0.1 µM, first compound 3.16 µM): 40.1%
- viability, T/C (second compound 0.1 µM, first compound 10 µM): 30.6%
- viability, T/C [27]: 89.7%
- viability, T/C [28]: 63%
- viability, T/C [29]: 43.2%
- viability, T/C [30]: 44.8%
- viability, T/C (second compound 0.316 µM, first compound 3.16 µM): 33.5%
- viability, T/C (second compound 0.316 µM, first compound 10 µM): 32%
- viability, T/C [33]: 79.2%
- viability, T/C [34]: 68.2%
- viability, T/C [35]: 53.5%
- viability, T/C [36]: 48.4%
- viability, T/C (second compound 1 µM, first compound 3.16 µM): 38%
- viability, T/C (second compound 1 µM, first compound 10 µM): 32.2%

Compound: O=C(c1ccc(F)c(F)c1Nc1ccc(I)cc1F)N1CC(O)([C@@H]2CCCCN2)C1 + C=CC(=O)N1CCN(c2nc(OCC3CCCN3C)nc3c(F)c(-c4nc(N)cc(C)c4C(F)(F)F)c(Cl)cc23)C(C)C1
- IC50 (second compound 0.00316 µM): 42.5 nM
- IC50 (second compound 0.01 µM): 33 nM
- IC50 (second compound 0.0316 µM): 36.7 nM
- IC50 (second compound 0.1 µM): 37.3 nM
- IC50 (second compound 0.316 µM): 40.6 nM
- IC50 (second compound 1 µM): 45.1 nM
- viability, T/C [1]: 81.3%
- viability, T/C [2]: 79.2%
- viability, T/C [3]: 58.5%
- viability, T/C [4]: 23.8%
- viability, T/C [5]: 3.06%
- viability, T/C [6]: 0.45%
- viability, T/C [7]: 94.9%
- viability, T/C [8]: 77.9%
- viability, T/C [9]: 51.3%
- viability, T/C [10]: 23.6%
- viability, T/C [11]: 2.14%
- viability, T/C [12]: 0.43%
- viability, T/C [13]: 93.3%
- viability, T/C [14]: 73.3%
- viability, T/C [15]: 58.9%
- viability, T/C [16]: 20%
- viability, T/C [17]: 2.38%
- viability, T/C [18]: 0.3%
- viability, T/C [19]: 94.6%
- viability, T/C [20]: 68.5%
- viability, T/C [21]: 62.3%
- viability, T/C [22]: 20.7%
- viability, T/C [23]: 2.8%
- viability, T/C [24]: 0.78%
- viability, T/C [25]: 77.7%
- viability, T/C [26]: 74.7%
- viability, T/C [27]: 57.5%
- viability, T/C [28]: 22.5%
- viability, T/C [29]: 2.78%
- viability, T/C [30]: 0.48%
- viability, T/C [31]: 88.8%
- viability, T/C [32]: 80.8%
- viability, T/C [33]: 62%
- viability, T/C [34]: 24.5%
- viability, T/C [35]: 2.77%
- viability, T/C [36]: 0.56%
